In ChEMBL document CHEMBL1147423, “Synthesis and antifungal activities of phenylenedithioureas” (2004):
In brackets after ≈: the same amount, converted by molar mass.

What was measured:
Paraphyton cookei = assay: Minimum inhibitory concentration against Microsporum cookei; assay type: functional
Aspergillus flavus = assay: Minimum inhibitory concentration against Aspergillus flavus; assay type: functional
Escherichia coli = assay: Minimum inhibitory concentration against Escherichia coli ATCC 25853; assay type: functional
Nannizzia gypsea = assay: Minimum inhibitory concentration Microsporum gypseum; assay type: functional
Enterococcus faecalis = assay: Minimum inhibitory concentration against Streptococcus faecalis ATCC 29212; assay type: functional
Arthroderma uncinatum = assay: Minimum inhibitory concentration against Trichophyton ajelloi; assay type: functional
Staphylococcus aureus = assay: Minimum inhibitory concentration Staphylococcus aureus ATCC 29213; assay type: functional
Candida albicans = assay: Minimum inhibitory concentration against Candida albicans ATCC 10231; assay type: functional
Trichophyton benhamiae = assay: Minimum inhibitory concentration against Trichophyton mentagrophytes; assay type: functional, Arthroderma benhamiae
Aspergillus niger = assay: Minimum inhibitory concentration against Aspergillus niger; assay type: functional
Nannizzia nana = assay: Minimum inhibitory concentration against Microsporum nanum; assay type: functional
Pseudomonas aeruginosa = assay: Minimum inhibitory concentration against Pseudomonas aeruginosae ATCC 27853; assay type: functional

| SMILES | MIC (Paraphyton cookei) [µg/mL] | MIC (Aspergillus flavus) [µg/mL] | MIC (Escherichia coli) [µg/mL] | MIC (Nannizzia gypsea) [µg/mL] | MIC (Enterococcus faecalis) [µg/mL] | MIC (Arthroderma uncinatum) [µg/mL] | MIC (Staphylococcus aureus) [µg/mL] | MIC (Candida albicans) [µg/mL] | MIC (Trichophyton benhamiae) [µg/mL] | MIC (Aspergillus niger) [µg/mL] | MIC (Nannizzia nana) [µg/mL] | MIC (Pseudomonas aeruginosa) [µg/mL] |
| --- | --- | --- | --- | --- | --- | --- | --- | --- | --- | --- | --- | --- |
| COC(=O)c1ccc(/N=C(\S)Nc2ccc(/N=C(/S)Nc3ccc(C(=O)OC)c(O)c3)cc2)cc1O | 64 (≈ 122 µM) | ≥ 512 | > 512 | 16 (≈ 30.4 µM) | 512 (≈ 972 µM) | 32 (≈ 60.8 µM) | > 512 | > 512 | 64 (≈ 122 µM) | ≥ 512 | 32 (≈ 60.8 µM) | 512 (≈ 972 µM) |
| O=C(O)c1ccc(/N=C(\S)Nc2cccc(/N=C(/S)Nc3ccc(C(=O)O)c(O)c3)c2)cc1O | 8 (≈ 16 µM) | ≥ 512 | 512 (≈ 1030 µM) | 64 (≈ 128 µM) | > 512 | 32 (≈ 64.2 µM) | 256 (≈ 513 µM) | > 512 | 32 (≈ 64.2 µM) | ≥ 512 | 64 (≈ 128 µM) | > 512 |
| O=C(O)c1ccc(/N=C(\S)Nc2cccc(/N=C(/S)Nc3ccc(C(=O)O)cc3)c2)cc1 | 32 (≈ 68.6 µM) | ≥ 512 | > 512 | 64 (≈ 137 µM) | 512 (≈ 1100 µM) | 64 (≈ 137 µM) | 256 (≈ 549 µM) | > 512 | 64 (≈ 137 µM) | ≥ 512 | 64 (≈ 137 µM) | 512 (≈ 1100 µM) |
| CC(C)OC(=O)c1ccc(/N=C(\S)Nc2cccc(/N=C(/S)Nc3ccc(C(=O)OC(C)C)cc3)c2)cc1 | 16 (≈ 29.1 µM) | ≥ 512 | 512 (≈ 930 µM) | 64 (≈ 116 µM) | > 512 | 64 (≈ 116 µM) | 512 (≈ 930 µM) | > 512 | 32 (≈ 58.1 µM) | ≥ 512 | 8 (≈ 14.5 µM) | > 512 |
| COC(=O)c1ccc(/N=C(\S)Nc2ccc(/N=C(\S)Nc3ccc(C(=O)OC)cc3)cc2)cc1 | 128 (≈ 259 µM) | ≥ 512 | > 512 | 256 (≈ 518 µM) | 512 (≈ 1040 µM) | 128 (≈ 259 µM) | > 512 | > 512 | 32 (≈ 64.7 µM) | ≥ 512 | 32 (≈ 64.7 µM) | 512 (≈ 1040 µM) |
| COC(=O)c1ccc(/N=C(\S)Nc2cccc(/N=C(/S)Nc3ccc(C(=O)OC)c(O)c3)c2)cc1O | 32 (≈ 60.8 µM) | ≥ 512 | 512 (≈ 972 µM) | 64 (≈ 122 µM) | > 512 | 128 (≈ 243 µM) | 256 (≈ 486 µM) | 512 (≈ 972 µM) | 64 (≈ 122 µM) | ≥ 512 | 32 (≈ 60.8 µM) | > 512 |
| CC(C)OC(=O)c1ccc(/N=C(\S)Nc2ccc(/N=C(\S)Nc3ccc(C(=O)OC(C)C)cc3)cc2)cc1 | 64 (≈ 116 µM) | ≥ 512 | > 512 | 32 (≈ 58.1 µM) | 512 (≈ 930 µM) | 64 (≈ 116 µM) | > 512 | > 512 | 64 (≈ 116 µM) | ≥ 512 | 64 (≈ 116 µM) | 512 (≈ 930 µM) |
| CC(C)OC(=O)c1ccc(/N=C(\S)Nc2cccc(/N=C(/S)Nc3ccc(C(=O)OC(C)C)c(O)c3)c2)cc1O | 32 (≈ 54.9 µM) | ≥ 512 | 512 (≈ 879 µM) | 32 (≈ 54.9 µM) | > 512 | 32 (≈ 54.9 µM) | 256 (≈ 439 µM) | > 512 | 16 (≈ 27.5 µM) | ≥ 512 | 32 (≈ 54.9 µM) | > 512 |
| CCOC(=O)c1ccc(/N=C(\S)Nc2cccc(/N=C(/S)Nc3ccc(C(=O)OCC)c(O)c3)c2)cc1O | 64 (≈ 115 µM) | ≥ 512 | 512 (≈ 923 µM) | 32 (≈ 57.7 µM) | > 512 | 32 (≈ 57.7 µM) | 256 (≈ 462 µM) | > 512 | 32 (≈ 57.7 µM) | ≥ 512 | 32 (≈ 57.7 µM) | > 512 |
| O=C(O)c1ccc(/N=C(\S)Nc2ccc(/N=C(/S)Nc3ccc(C(=O)O)c(O)c3)cc2)cc1O | 128 (≈ 257 µM) | ≥ 512 | > 512 | 128 (≈ 257 µM) | 512 (≈ 1030 µM) | 128 (≈ 257 µM) | > 512 | 256 (≈ 513 µM) | 128 (≈ 257 µM) | ≥ 512 | 64 (≈ 128 µM) | 512 (≈ 1030 µM) |
| COC(=O)c1ccc(/N=C(\S)Nc2cccc(/N=C(/S)Nc3ccc(C(=O)OC)cc3)c2)cc1 | 64 (≈ 129 µM) | ≥ 512 | 512 (≈ 1040 µM) | 128 (≈ 259 µM) | > 512 | 64 (≈ 129 µM) | 512 (≈ 1040 µM) | > 512 | 64 (≈ 129 µM) | ≥ 512 | 128 (≈ 259 µM) | > 512 |
| CCOC(=O)c1ccc(/N=C(\S)Nc2cccc(/N=C(/S)Nc3ccc(C(=O)OCC)cc3)c2)cc1 | 256 (≈ 490 µM) | ≥ 512 | 512 (≈ 980 µM) | 64 (≈ 122 µM) | > 512 | 256 (≈ 490 µM) | 512 (≈ 980 µM) | > 512 | 64 (≈ 122 µM) | ≥ 512 | 256 (≈ 490 µM) | > 512 |
| CCOC(=O)c1ccc(/N=C(\S)Nc2ccc(/N=C(\S)Nc3ccc(C(=O)OCC)cc3)cc2)cc1 | 128 (≈ 245 µM) | ≥ 512 | > 512 | > 512 | 512 (≈ 980 µM) | 256 (≈ 490 µM) | > 512 | > 512 | 512 (≈ 980 µM) | ≥ 512 | 128 (≈ 245 µM) | 512 (≈ 980 µM) |
| CCOC(=O)c1ccc(/N=C(\S)Nc2ccc(/N=C(/S)Nc3ccc(C(=O)OCC)c(O)c3)cc2)cc1O | 256 (≈ 462 µM) | ≥ 512 | > 512 | 256 (≈ 462 µM) | 512 (≈ 923 µM) | > 512 | > 512 | > 512 | > 512 | ≥ 512 | 128 (≈ 231 µM) | 512 (≈ 923 µM) |
| O=C(O)c1ccc(N/C(S)=N\c2ccccc2/N=C(/S)Nc2ccc(C(=O)O)cc2)cc1 | 32 (≈ 68.6 µM) | ≥ 512 | > 512 | 32 (≈ 68.6 µM) | 512 (≈ 1100 µM) | 16 (≈ 34.3 µM) | > 512 | > 512 | 32 (≈ 68.6 µM) | ≥ 512 | 16 (≈ 34.3 µM) | 512 (≈ 1100 µM) |
| O=C(O)c1ccc(/N=C(\S)Nc2ccc(/N=C(\S)Nc3ccc(C(=O)O)cc3)cc2)cc1 | 128 (≈ 274 µM) | ≥ 512 | > 512 | 32 (≈ 68.6 µM) | 512 (≈ 1100 µM) | 128 (≈ 274 µM) | > 512 | 512 (≈ 1100 µM) | 32 (≈ 68.6 µM) | ≥ 512 | 128 (≈ 274 µM) | 512 (≈ 1100 µM) |
| O=C(N[C@H](CO)[C@H](O)c1ccc([N+](=O)[O-])cc1)C(Cl)Cl [CHLORAMPHENICOL] | – | ≥ 512 | – | – | – | – | 128 (≈ 396 µM) | – | – | ≥ 512 | – | 512 (≈ 1580 µM) |
| CC(=O)N1CCN(c2ccc(OC[C@H]3CO[C@](Cn4ccnc4)(c4ccc(Cl)cc4Cl)O3)cc2)CC1 [KETOCONAZOLE] | 8 (≈ 15.1 µM) | ≥ 512 | – | 16 (≈ 30.1 µM) | – | 16 (≈ 30.1 µM) | – | 128 (≈ 241 µM) | 16 (≈ 30.1 µM) | ≥ 512 | 16 (≈ 30.1 µM) | – |
